Measurements taken from US20220143148A1, “COMPOSITIONS AND METHODS FOR MODULATING CGRP SIGNALING TO REGULATE INTESTINAL INNATE LYMPHOID CELLS” (The Broad Institute, Inc., priority 2019, published 2022).

Tests used:
[1] = system: intestinal KLRG1+ ILC2s; assay: Bulk ATAC-seq of intestinal KLRG1+ ILC2s stimulated in vitro; assay type: cell-based, mouse; conditions: α-CGRP stimulation alone
Procedure: ILC2 culture. Sort-purified intestinal KLRG1^+ ILC2s were incubated in RPMI supplemented with 10% FCS, 10 mM Hepes, 1 mM sodium pyruvate, 10% FBS, 80 μm 2-mercaptoethanol, 2 mM glutamine, 100 U/ml penicillin, […] streptomycin, 100 ng/ml IL-2 and 100 ng/ml IL-7 in 96-well round bottom plate at 37° C. and 5% CO2. If indicated, the culture was supplemented with 100 ng/ml IL-25. For the in vitro proliferation assay, cells from different mice were pooled and labeled with CellTrace Violet, and then cultured at 1,000-1,500 cells per well with 10 μg/ml α-CGRP for 60 hours. When indicated, 10 μM forskolin or 1 μM SQ 22, 536 in DMSO was supplied and cells were cultured for 40 hours. […]
Bulk ATAC-seq. […] The library was amplified for 11 cycles, purified with Zymo DNA clean (Zymo Research), and sequenced on an Illumina Next-seq platform using 75 cycle Nextseq 500 high output V2 kit (Read 1: 38 cycles, Index 1: 8 cycles, Index 2: 8 cycles, Read 2: 38 cycles).
The reads were trimmed and aligned to the mouse reference genome (mm9) with Bowtie2 aligner (Langmead and Salzberg, 2012) using the option-X2000. Then, Applicants discarded reads with alignment quality<Q30, improperly paired, mapped to the unmapped contigs, chrY, and mitochondria. […] Peak summits were extended by ±250 bp, and fragment counts in peaks were calculated using chromVAR (Schep et al., 2017) (version: 1.1.1). […]

[2] = system: intestinal ILC2s; assay: OVA food allergy model with intragastric α-CGRP; assay type: in vivo, mouse; conditions: α-CGRP intragastrically together with OVA, pre-sensitized mice; P=0.02, P=0.009, t-test
Source text: Intraperitoneal administration of α-CGRP impaired IL-25-induced expansion of KLRG1^+ ILC2s (FIGS. 5B and 12A), consistent with the in vitro results. Recent work has shown that intestinal KLRG1^+ ILC2s can migrate to mesenteric lymph nodes (mLNs) and other tissues during inflammation via sphingosine 1-phosphate (S1P)-mediated chemotaxis (Huang et al., 2018). To determine whether α-CGRP primarily impacts intestinal or mLN ILC2s, Applicants relied on the fact that intestinal GATA3^+ ILC2s are generally phenotypically KLRG1^+ST2^− (data not shown), whereas mLN ILC2s are mainly ST2^+ at steady state (FIG. 5C). IL-25 administration increased the frequency of both KLRG1^+ST2^− inflammatory ILC2s and ST2^+ ILC2s in mLNs (FIGS. 5C-E and 12B). […] Thus, α-CGRP preferentially regulates the response of intestinal KLRG1^+ST2^− ILC2s. […] Taken together, α-CGRP antagonized expansion of intestinal KLRG1^+ ILC2s in two different type 2 inflammatory models.
To induce allergic reaction to OVA, 6 to 7 weeks old mice were sensitized twice, two weeks apart, with 50 μg of OVA plus 1 mg of aluminum potassium sulfate adjuvant via intraperitoneal injection. Two weeks later, mice were orally administered with 50 mg of OVA on every other day for a total of five times. […]
Flow cytometry and cell sorting. […] Flow cytometry was performed on Cytoflex (Beckman Coulter) and analyzed with FlowJo software. […]

## α-CGRP: neuropeptide alpha-calcitonin gene-related peptide, encoded by exon 5 of Calca; administered as peptide
[1]
  regions of increased chromatin accessibility: enriched for gene loci involved in the adenylate cyclase pathway
[2]
  expansion of intestinal ILC2s in a food allergy model: significantly suppressed
